# In publication PMC9447987, “Long-term memory CD8^+ T cells specific for SARS-CoV-2 in individuals who received the BNT162b2 mRNA vaccine” (Nature Communications, 2022):
# Read-outs that look alike come from different tables or passages of the source.
# How the values were obtained:
# HLA-A*24:02 = HLA-A*24:02 (Homo sapiens, UniProt P04439, D101N/D140Y/D185E/E176V/E190D/F33S/G103R/G107R/I119L/I121M/I306V/K335N/L105A/L180Q/L300P/N151K/N90K/Q86E/Q94H/R106L/R138H/R89G/T104I/T345S/V100E/W191G/Y123F); test: HLA stabilization assay using RMA-S-A2402 cells; type: binding; conditions: RMA-S-A2402 cells
# [1] = test system: HLA-A*24:02-restricted CD8+ T cells; type: cell-based, human; conditions: for IFN-γ-producing cells among CD8+ T cells (Fig. 1f): bulk T cells
# [2] = 14 vaccinated individuals, second time point 11–22 weeks after the first point of analysis
sequence,measurement,setting,value
VYSSANNCTF [S-VYF10],"MFI, HLA-A2402 (APC), representative staining","HLA-A*24:02; Suppl. Fig. 3b (for Fig. 4a, 4b), peptide(-) 14.8, 26 °C (Maximum) 32.7",26.9
same,"MFI, HLA-A2402 (APC), representative staining","HLA-A*24:02; Suppl. Fig. 3c (for Fig. 4c), peptide(-) 11.7, 26 °C (Maximum) 28.9",32.7
same,number of individuals with specific T cells at both time points,[1]; [2],two
same,number of individuals with specific T cells at only the first time point,[1]; [2],one
same,IFNg-producing cells among CD8 T cells (%),"[1]; Fig.6a, donor U-32, 1.430 weeks since 2nd dose of vaccination",0.080%
same,IFNg-producing cells among CD8 T cells (%),"[1]; Fig.6a, donor U-32, 15.290 weeks since 2nd dose of vaccination",0.000%
same,IFNg-producing cells among CD8 T cells (%),"[1]; Fig.6a, donor V1, 19.000 weeks since 2nd dose of vaccination",0.000%
same,IFNg-producing cells among CD8 T cells (%),"[1]; Fig.6a, donor V1, 31.710 weeks since 2nd dose of vaccination",0.710%
same,IFNg-producing cells among CD8 T cells (%),"[1]; Fig.6a, donor V2, 9.570 weeks since 2nd dose of vaccination",0.330%
same,IFNg-producing cells among CD8 T cells (%),"[1]; Fig.6a, donor V2, 31.570 weeks since 2nd dose of vaccination",0.000%
same,IFNg-producing cells among CD8 T cells (%),"[1]; Fig.6a, donor V5, 10.570 weeks since 2nd dose of vaccination",0.000%
same,IFNg-producing cells among CD8 T cells (%),"[1]; Fig.6a, donor V5, 31.710 weeks since 2nd dose of vaccination",1.030%
same,IFNg-producing cells among CD8 T cells (%),"[1]; Fig.6a, donor V6, 9.570 weeks since 2nd dose of vaccination",0.590%
same,IFNg-producing cells among CD8 T cells (%),"[1]; Fig.6a, donor V6, 31.000 weeks since 2nd dose of vaccination",0.930%
same,IFNg-producing cells among CD8 T cells (%),"[1]; Fig.6a, donor V7, 10.140 weeks since 2nd dose of vaccination",0.000%
same,IFNg-producing cells among CD8 T cells (%),"[1]; Fig.6a, donor V7, 31.140 weeks since 2nd dose of vaccination",0.470%
same,IFNg-producing cells among CD8 T cells (%),"[1]; Fig.6a, donor V8, 9.860 weeks since 2nd dose of vaccination",0.000%
same,IFNg-producing cells among CD8 T cells (%),"[1]; Fig.6a, donor V8, 30.140 weeks since 2nd dose of vaccination",0.160%
same,IFNg-producing cells among CD8 T cells (%),"[1]; Fig.6a, donor V9, 20.570 weeks since 2nd dose of vaccination",0.000%
same,IFNg-producing cells among CD8 T cells (%),"[1]; Fig.6a, donor V9, 31.570 weeks since 2nd dose of vaccination",0.930%
same,IFNg-producing cells among CD8 T cells (%),"[1]; Fig.6a, donor V12, 1.000 weeks since 2nd dose of vaccination",0.000%
same,IFNg-producing cells among CD8 T cells (%),"[1]; Fig.6a, donor V12, 9.290 weeks since 2nd dose of vaccination",0.000%
same,IFNg-producing cells among CD8 T cells (%),"[1]; Fig.6a, donor V13, 9.000 weeks since 2nd dose of vaccination",2.650%
same,IFNg-producing cells among CD8 T cells (%),"[1]; Fig.6a, donor V13, 30.290 weeks since 2nd dose of vaccination",3.770%
same,IFNg-producing cells among CD8 T cells (%),"[1]; Fig.6a, donor V14, 2.000 weeks since 2nd dose of vaccination",1.600%
same,IFNg-producing cells among CD8 T cells (%),"[1]; Fig.6a, donor V14, 17.000 weeks since 2nd dose of vaccination",1.540%
same,IFNg-producing cells among CD8 T cells (%),"[1]; Fig.6a, donor V15, 6.860 weeks since 2nd dose of vaccination",0.000%
same,IFNg-producing cells among CD8 T cells (%),"[1]; Fig.6a, donor V15, 25.860 weeks since 2nd dose of vaccination",0.380%
same,IFNg-producing cells among CD8 T cells (%),"[1]; Fig.6a, donor V16, 8.860 weeks since 2nd dose of vaccination",1.180%
same,IFNg-producing cells among CD8 T cells (%),"[1]; Fig.6a, donor V16, 22.710 weeks since 2nd dose of vaccination",0.000%
same,IFNg-producing cells among CD8 T cells (%),"[1]; Fig.6a, donor V17, 4.140 weeks since 2nd dose of vaccination",0.000%
same,IFNg-producing cells among CD8 T cells (%),"[1]; Fig.6a, donor V17, 18.000 weeks since 2nd dose of vaccination",0.000%
same,IFNg-producing cells among CD8 T cells (%),"[1]; convalescent donor C2, 45.290 weeks since PCR-confirmed diagnosis, […], peptide-pulsed C1R-A2402",1.019%
same,IFNg-producing cells among CD8 T cells (%),"[1]; convalescent donor C3, 2.430 weeks since PCR-confirmed diagnosis, […], peptide-pulsed C1R-A2402",0.261%
same,IFNg-producing cells among CD8 T cells (%),"[1]; convalescent donor C4, 35.000 weeks since PCR-confirmed diagnosis, […], peptide-pulsed C1R-A2402",0.317%
same,IFNg-producing cells among CD8 T cells (%),"[1]; convalescent donor C5, 41.430 weeks since PCR-confirmed diagnosis, […], peptide-pulsed C1R-A2402",0.327%
same,IFNg-producing cells among CD8 T cells (%),"[1]; convalescent donor C6, 20.000 weeks since PCR-confirmed diagnosis, […], peptide-pulsed C1R-A2402",1.170%
same,IFNg-producing cells among CD8 T cells (%),"[1]; convalescent donor C7, 21.710 weeks since PCR-confirmed diagnosis, […], peptide-pulsed C1R-A2402",0.230%
same,IFNg-producing cells among CD8 T cells (%),"[1]; convalescent donor C8, 47.860 weeks since PCR-confirmed diagnosis, […], peptide-pulsed C1R-A2402",0.410%
same,IFNg-producing cells among CD8 T cells (%),"[1]; convalescent donor C9, 21.860 weeks since PCR-confirmed diagnosis, […], peptide-pulsed C1R-A2402",0.000%
same,IFNg-producing cells among CD8 T cells (%),"[1]; convalescent donor C10, 24.570 weeks since PCR-confirmed diagnosis, […], peptide-pulsed C1R-A2402",1.220%
same,IFNg-producing cells among CD8 T cells (%),"[1]; convalescent donor C11, 24.290 weeks since PCR-confirmed diagnosis, […], peptide-pulsed C1R-A2402",0.000%
same,IFN-γ-producing cells among CD8+ T cells (Fig. 1f),"[1]; donor V10, 0 weeks since 1st dose of vaccination, C1R-A2402 pre-pulsed with 1 μM peptide",1.450%
same,IFN-γ-producing cells among CD8+ T cells (Fig. 1f),"[1]; donor V10, 3 weeks since 1st dose of vaccination, C1R-A2402 pre-pulsed with 1 μM peptide",0.420%
same,IFN-γ-producing cells among CD8+ T cells (Fig. 1f),"[1]; donor V10, 5 weeks since 1st dose of vaccination, C1R-A2402 pre-pulsed with 1 μM peptide",0.290%
same,IFN-γ-producing cells among CD8+ T cells (Fig. 1f),"[1]; donor V10, 7 weeks since 1st dose of vaccination, C1R-A2402 pre-pulsed with 1 μM peptide",0.000%
same,IFN-γ-producing cells among CD8+ T cells (Fig. 1f),"[1]; donor V12, 0 weeks since 1st dose of vaccination, C1R-A2402 pre-pulsed with 1 μM peptide",0.310%
same,IFN-γ-producing cells among CD8+ T cells (Fig. 1f),"[1]; donor V12, 3 weeks since 1st dose of vaccination, C1R-A2402 pre-pulsed with 1 μM peptide",0.000%
same,IFN-γ-producing cells among CD8+ T cells (Fig. 1f),"[1]; donor V12, 5 weeks since 1st dose of vaccination, C1R-A2402 pre-pulsed with 1 μM peptide",0.540%
same,IFN-γ-producing cells among CD8+ T cells (Fig. 1f),"[1]; donor V12, 7 weeks since 1st dose of vaccination, C1R-A2402 pre-pulsed with 1 μM peptide",0.000%
same,IFN-γ-producing cells among CD8+ T cells (Fig. 1f),"[1]; donor V14, 0 weeks since 1st dose of vaccination, C1R-A2402 pre-pulsed with 1 μM peptide",0.000%
same,IFN-γ-producing cells among CD8+ T cells (Fig. 1f),"[1]; donor V14, 2 weeks since 1st dose of vaccination, C1R-A2402 pre-pulsed with 1 μM peptide",0.000%
same,IFN-γ-producing cells among CD8+ T cells (Fig. 1f),"[1]; donor V14, 5 weeks since 1st dose of vaccination, C1R-A2402 pre-pulsed with 1 μM peptide",1.580%
same,IFN-γ-producing cells among CD8+ T cells (Fig. 1f),"[1]; donor V14, 7 weeks since 1st dose of vaccination, C1R-A2402 pre-pulsed with 1 μM peptide",0.000%
same,number of individuals with specific T cells after the second vaccine dose,[1]; longitudinal analysis of 3 vaccinated individuals,one
same,Freq of responder (%),[1]; of 17 vaccinated HLA-A*24:02+ individuals (Fig. 4b),23.5%
same,IFNg-producing cells among CD8 T cells (%),"[1]; vaccinated donor V1, 19.000 weeks since 2nd dose, […], C1R-A2402 pre-pulsed with 1 μM peptide",0%
same,IFNg-producing cells among CD8 T cells (%),"[1]; vaccinated donor V2, 9.570 weeks since 2nd dose, […], C1R-A2402 pre-pulsed with 1 μM peptide",0.331%
same,IFNg-producing cells among CD8 T cells (%),"[1]; vaccinated donor V3, 8.860 weeks since 2nd dose, […], C1R-A2402 pre-pulsed with 1 μM peptide",0.073%
same,IFNg-producing cells among CD8 T cells (%),"[1]; vaccinated donor V4, 10.430 weeks since 2nd dose, […], C1R-A2402 pre-pulsed with 1 μM peptide",2.41%
same,IFNg-producing cells among CD8 T cells (%),"[1]; vaccinated donor V5, 10.570 weeks since 2nd dose, […], C1R-A2402 pre-pulsed with 1 μM peptide",0%
same,IFNg-producing cells among CD8 T cells (%),"[1]; vaccinated donor V6, 9.570 weeks since 2nd dose, […], C1R-A2402 pre-pulsed with 1 μM peptide",0.593%
same,IFNg-producing cells among CD8 T cells (%),"[1]; vaccinated donor V7, 10.140 weeks since 2nd dose, […], C1R-A2402 pre-pulsed with 1 μM peptide",0%
same,IFNg-producing cells among CD8 T cells (%),"[1]; vaccinated donor V8, 9.860 weeks since 2nd dose, […], C1R-A2402 pre-pulsed with 1 μM peptide",0%
same,IFNg-producing cells among CD8 T cells (%),"[1]; vaccinated donor V9, 20.570 weeks since 2nd dose, […], C1R-A2402 pre-pulsed with 1 μM peptide",0%
same,IFNg-producing cells among CD8 T cells (%),"[1]; vaccinated donor V10, 2.000 weeks since 2nd dose, […], C1R-A2402 pre-pulsed with 1 μM peptide",0.3%
same,IFNg-producing cells among CD8 T cells (%),"[1]; vaccinated donor V11, 1.430 weeks since 2nd dose, […], C1R-A2402 pre-pulsed with 1 μM peptide",0.076%
same,IFNg-producing cells among CD8 T cells (%),"[1]; vaccinated donor V12, 1.000 weeks since 2nd dose, […], C1R-A2402 pre-pulsed with 1 μM peptide",0%
same,IFNg-producing cells among CD8 T cells (%),"[1]; vaccinated donor V13, 9.000 weeks since 2nd dose, […], C1R-A2402 pre-pulsed with 1 μM peptide",2.649%
same,IFNg-producing cells among CD8 T cells (%),"[1]; vaccinated donor V14, 2.000 weeks since 2nd dose, […], C1R-A2402 pre-pulsed with 1 μM peptide",1.601%
same,IFNg-producing cells among CD8 T cells (%),"[1]; vaccinated donor V15, 6.860 weeks since 2nd dose, […], C1R-A2402 pre-pulsed with 1 μM peptide",0%
same,IFNg-producing cells among CD8 T cells (%),"[1]; vaccinated donor V16, 8.860 weeks since 2nd dose, […], C1R-A2402 pre-pulsed with 1 μM peptide",1.178%
same,IFNg-producing cells among CD8 T cells (%),"[1]; vaccinated donor V17, 4.140 weeks since 2nd dose, […], C1R-A2402 pre-pulsed with 1 μM peptide",0%
same,time after the second vaccine dose for which epitope-specific memory CD8+ T cells were detectable / maintained,[1]; vaccinated individuals (8 individuals),> 30 weeks
